Data on 15 compounds can be found in patent US20240390340A1 (INCYTE CORPORATION, priority 2023, published 2024).

For orientation: IC50 means the concentration needed to halve the response being measured.

Series [1] concerns the target KRAS G12D (Homo sapiens, UniProt P01116, G12D). In words: GDP-GTP exchange assay (bodipy-GDP/GppNHp, SOS1), KRAS G12D. The series is classed as biochemical. As to conditions: Table H, column G12D; for compounds isolated as several atropisomers/diastereoisomers the value for the most potent isomer is quoted; read-out: KRAS G12D exchange assay IC50.
Series [2] has as its system Caco-2 cells. The experiment in a line: Caco2 assay (Papp A-B). As to conditions: test compound 50 μM, 120 min, 37° C. The series is classed as in vitro ADME. The protocol:
Caco-2 cells are grown at 37° C. in an atmosphere of 5% CO2 in DMEM growth medium supplemented with 10% (v/v) fetal bovine serum, 1% (v/v) nonessential amino acids, penicillin (100 U/mL), and streptomycin (100 μg/mL). Confluent cell monolayers are subcultured every 7 days or 4 days for Caco-2 by treatment with 0.05% trypsin containing […]. Caco-2 cells are seeded in 96-well Transwell plates. The seeding density for Caco-2 cells is 14,000 cells/well. DMEM growth medium is replaced every other day after seeding. Cell monolayers are used for transport assays between 22 and 25 days for Caco-2 cells.
Cell culture medium is removed and replaced with HBSS. To measure the TEER, the HBSS is added into the donor compartment (apical side) and receiver compartment (basolateral side). The TEER is measured by using a REMS Autosampler to ensure the integrity of the cell monolayers. Caco-2 cell monolayers with TEER values 300 Ω·cm^2 are used for transport experiments. To determine the Papp in the absorptive direction (A-B), solution of test compound (50 μM) in HBSS is added to the donor compartment (apical side), while HBSS solution with 4% BSA is added to the receiver compartment (basolateral side). The apical volume was 0.075 mL, and the basolateral volume is 0.25 mL. The incubation period is 120 min. at 37° C. in an atmosphere of 5% CO2. At the end of the incubation period, samples from the donor and receiver sides are removed and an equal volume of MeCN is added for protein precipitation. The supernatants are collected after centrifugation (3000 rpm, Allegra X-14R Centrifuge from Beckman Coulter, Indianapolis, IN) for LCMS analysis. The permeability value is determined according to the equation:
[formula] • where the flux rate (F, mass/time) is calculated from the slope of cumulative amounts of compound of interest on the receiver side, SA is the surface area of the cell membrane, VD is the donor volume, and MD is the initial amount of the solution in the donor chamber.
The symbol “+” indicates a Caco-2 value of ≤0.5, “++” indicates a Caco-2 value of >0.5 but ≤1; and “+++” indicates a Caco-2 value of >1. “NA” indicates IC50 not available.

Series [3] has as its target KRAS G12V (Homo sapiens, UniProt P01116, G12V). The experiment in a line: GDP-GTP exchange assay (bodipy-GDP/GppNHp, SOS1), KRAS G12V. In kind it is biochemical. As to conditions: Table H, column G12V; for compounds isolated as several atropisomers/diastereoisomers the value for the most potent isomer is quoted; read-out: KRAS G12V exchange assay IC50.

Chain of KRAS G12V (P01116 1-188 isoform P01116-2 G12V): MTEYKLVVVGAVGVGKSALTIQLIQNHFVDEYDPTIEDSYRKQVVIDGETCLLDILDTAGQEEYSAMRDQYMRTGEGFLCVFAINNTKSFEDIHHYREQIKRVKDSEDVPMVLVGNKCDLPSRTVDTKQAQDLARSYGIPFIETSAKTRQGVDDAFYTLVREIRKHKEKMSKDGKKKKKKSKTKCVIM
Chain of KRAS G12D (P01116 1-188 isoform P01116-2 G12D): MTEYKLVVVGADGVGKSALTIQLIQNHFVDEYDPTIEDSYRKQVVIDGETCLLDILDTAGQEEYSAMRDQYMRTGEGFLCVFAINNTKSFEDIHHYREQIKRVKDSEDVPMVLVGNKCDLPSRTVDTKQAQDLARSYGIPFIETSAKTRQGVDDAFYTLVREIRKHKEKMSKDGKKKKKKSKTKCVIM

`COc1ccc(O[C@H]2C[C@H](c3cc4c([C@@H](C)O)nc5c(F)c(-c6cccc(Cl)c6Cl)c(CCC#N)cc5c4n3[C@H]3[C@H]4CN[C@@H]3C4)N(C(=O)C3CC3)C2)cn1` [Example 76, 3-(1-((1R,4R,5S)-2-Azabicyclo[2.1.1]hexan-5-yl)-2-((2R,4S)-1-(cyclopropanecarbonyl)-4-((6-methoxypyridin-3-yl)oxy)pyrrolidin-2-yl)-7-(2,3-dichlorophenyl)-6-fluoro-4-((R)-1-hydroxyethyl)-1H-pyrrolo[3,2-c]quinolin-8-yl)propanenitrile]: the concentration for half-maximal inhibition (IC50) in series [1] and in series [3] was at most 100 nM throughout. The Caco-2 entry in series [2] was “++ (a Caco-2 value of >0.5 but ≤1)”.

For `COc1cccc(F)c1CO[C@H]1C[C@H](c2cc3c(C)nc4c(F)c(-c5cccc(Cl)c5Cl)c(CCC#N)cc4c3n2[C@H]2[C@H]3CN[C@@H]2C3)N(C(=O)C2CC2)C1` [Example 16], the IC50 in series [1] and in series [3] was at most 100 nM each time. The Caco-2 result in series [2] is reported as “++ (a Caco-2 value of >0.5 but ≤1)”.

On to `CCc1c(-c2ccccc2)nnn1[C@H]1C[C@H](c2cc3c(C)nc4c(F)c(-c5cccc(Cl)c5Cl)c(CCC#N)cc4c3n2[C@H]2[C@H]3CN[C@@H]2C3)N(C(=O)C2CC2)C1` [Example 70, 3-(1-((1R,4R,5S)-2-Azabicyclo[2.1.1]hexan-5-yl)-2-((2R,4S)-1-(cyclopropanecarbonyl)-4-(5-ethyl-4-phenyl-1H-1,2,3-triazol-1-yl)pyrrolidin-2-yl)-7-(2,3-dichlorophenyl)-6-fluoro-4-methyl-1H-pyrrolo[3,2-c]quinolin-8-yl)propanenitrile], for which the IC50 in series [1] and in series [3] was at most 100 nM in each case. Also, the Caco-2 entry in series [2] was “+ (a Caco-2 value of ≤0.5)”.

On to `CN(C)C(=O)c1ccc(-c2nc3c(F)c(-c4cccc(Cl)c4Cl)c(CCC#N)cc3c3c2cc([C@H]2C[C@H](OCc4c(F)cccc4F)CN2C(=O)C2CC2)n3[C@H]2[C@H]3CN[C@@H]2C3)cn1` [Example 26], for which the IC50 in series [1] and in series [3] was at most 100 nM each time. In series [2], the Caco-2 result is “+ (a Caco-2 value of ≤0.5)”.

As to `Cc1nc2c(F)c(-c3cccc(Cl)c3Cl)c(CCC#N)cc2c2c1cc([C@H]1C[C@H](OCc3nccs3)CN1C(=O)C1CC1)n2[C@H]1[C@H]2CN[C@@H]1C2` [Example 9], the IC50 in series [1] and in series [3] was at most 100 nM each time. Besides, the Caco-2 result in series [2] is reported as “+ (a Caco-2 value of ≤0.5)”.

As for `COc1ncccc1O[C@H]1C[C@H](c2cc3c(C)nc4c(F)c(-c5cccc(Cl)c5Cl)c(CCC#N)cc4c3n2[C@H]2[C@H]3CN[C@@H]2C3)N(C(=O)C2CC2)[C@@H]1C` [Example 49, 3-(1-((1R,4R,5S)-2-Azabicyclo[2.1.1]hexan-5-yl)-2-((2R,4S,5R)-1-(cyclopropanecarbonyl)-4-((2-methoxypyridin-3-yl)oxy)-5-methylpyrrolidin-2-yl)-7-(2,3-dichlorophenyl)-6-fluoro-4-methyl-1H-pyrrolo[3,2-c]quinolin-8-yl)propanenitrile], the concentration for half-maximal inhibition (IC50) in series [1] and in series [3] was at most 100 nM in each case. Moreover, in series [2], the Caco-2 result was “+++ (a Caco-2 value of >1)”.

For `Cc1nc2c(F)c(-c3cccc(Cl)c3Cl)c(CCC#N)cc2c2c1cc([C@H]1C[C@H](OCc3cnsn3)CN1C(=O)C1CC1)n2[C@H]1[C@H]2CN[C@@H]1C2` [Example 13], the half-maximal inhibitory concentration (IC50) in series [1] and in series [3] was at most 100 nM each time. In addition, in series [2], the Caco-2 entry was “+ (a Caco-2 value of ≤0.5)”.

As to `Cc1nc2c(F)c(-c3cccc(Cl)c3Cl)c(CCC#N)cc2c2c1cc([C@H]1C[C@H](OCc3ccon3)CN1C(=O)C1CC1)n2[C@H]1[C@H]2CN[C@@H]1C2` [Example 12], the IC50 in series [1] and in series [3] was at most 100 nM each time. Moreover, the Caco-2 result in series [2] is “+ (a Caco-2 value of ≤0.5)”.

On to `COc1cccc(O[C@H]2C[C@H](c3cc4c(C)nc5c(F)c(-c6cccc(Cl)c6Cl)c(CCC#N)cc5c4n3[C@H]3[C@H]4CN[C@@H]3C4)N(C(=O)C3CC3)C2)c1` [Example 44, 3-(1-((1R,4R,5S)-2-Azabicyclo[2.1.1]hexan-5-yl)-2-((2R,4S)-1-(cyclopropanecarbonyl)-4-(3-methoxyphenoxy)pyrrolidin-2-yl)-7-(2,3-dichlorophenyl)-6-fluoro-4-methyl-1H-pyrrolo[3,2-c]quinolin-8-yl)propanenitrile], for which the 50% inhibitory concentration (IC50) in series [1] and in series [3] was at most 100 nM each time. Besides, in series [2], the Caco-2 result is “+ (a Caco-2 value of ≤0.5)”.

Regarding `Cc1nc2c(F)c(-c3cccc(Cl)c3Cl)c(CCC#N)cc2c2c1cc([C@H]1C[C@H](Oc3ncccc3F)CN1C(=O)C1CC1)n2[C@H]1[C@H]2CN[C@@H]1C2` [Example 58, 3-(1-((1R,4R,5S)-2-Azabicyclo[2.1.1]hexan-5-yl)-2-((2R,4S)-1-(cyclopropanecarbonyl)-4-((3-fluoropyridin-2-yl)oxy)pyrrolidin-2-yl)-7-(2,3-dichlorophenyl)-6-fluoro-4-methyl-1H-pyrrolo[3,2-c]quinolin-8-yl)propanenitrile], the IC50 in series [1] and in series [3] was at most 100 nM throughout. The Caco-2 result in series [2] is listed as “+++ (a Caco-2 value of >1)”.

As for `C[C@@H](O)c1nc2c(F)c(-c3cccc(Cl)c3Cl)c(CCC#N)cc2c2c1cc([C@H]1C[C@H](Oc3nccs3)CN1C(=O)C1CC1)n2[C@H]1[C@H]2CN[C@@H]1C2` [Example 54, 3-(1-((1R,4R,5S)-2-Azabicyclo[2.1.1]hexan-5-yl)-2-((2R,4S)-1-(cyclopropanecarbonyl)-4-(thiazol-2-yloxy)pyrrolidin-2-yl)-7-(2,3-dichlorophenyl)-6-fluoro-4-((R)-1-hydroxyethyl)-1H-pyrrolo[3,2-c]quinolin-8-yl)propanenitrile], the concentration for half-maximal inhibition (IC50) in series [1] and in series [3] was at most 100 nM in each case. In addition, the Caco-2 entry in series [2] is listed as “+ (a Caco-2 value of ≤0.5)”.

Regarding `COc1cc(O[C@H]2C[C@H](c3cc4c(C)nc5c(F)c(-c6cccc(Cl)c6Cl)c(CCC#N)cc5c4n3[C@H]3[C@H]4CN[C@@H]3C4)N(C(=O)C3CC3)[C@@H]2C)ccn1` [Example 41, 3-(1-((1R,4R,5S)-2-Azabicyclo[2.1.1]hexan-5-yl)-2-((2R,4S,5R)-1-(cyclopropanecarbonyl)-4-((2-methoxypyridin-4-yl)oxy)-5-methylpyrrolidin-2-yl)-7-(2,3-dichlorophenyl)-6-fluoro-4-methyl-1H-pyrrolo[3,2-c]quinolin-8-yl)propanenitrile], the half-inhibitory concentration (IC50) in series [1] and in series [3] was at most 100 nM throughout. The Caco-2 entry in series [2] is on record as “++ (a Caco-2 value of >0.5 but ≤1)”.

With `Cc1nc2c(F)c(-c3cccc(Cl)c3Cl)c(CCC#N)cc2c2c1cc([C@H]1C[C@H](Oc3ccnc4ccsc34)CN1C(=O)C1CC1)n2[C@H]1[C@H]2CN[C@@H]1C2` [Example 55, 3-(1-((1R,4R,5S)-2-Azabicyclo[2.1.1]hexan-5-yl)-2-((2R,4S)-1-(cyclopropanecarbonyl)-4-(thieno[3,2-b]pyridin-7-yloxy)pyrrolidin-2-yl)-7-(2,3-dichlorophenyl)-6-fluoro-4-methyl-1H-pyrrolo[3,2-c]quinolin-8-yl)propanenitrile], the half-maximal inhibitory concentration (IC50) in series [1] and in series [3] was at most 100 nM in each case. Also, the Caco-2 entry in series [2] was “+ (a Caco-2 value of ≤0.5)”.

On to `Cc1nc2c(F)c(-c3cccc(Cl)c3Cl)c(CCC#N)cc2c2c1cc([C@H]1C[C@H](Oc3cnn(C(F)F)c3)CN1C(=O)C1CC1)n2[C@H]1[C@H]2CN[C@@H]1C2` [Example 48, 3-(1-((1R,4R,5S)-2-Azabicyclo[2.1.1]hexan-5-yl)-2-((2R,4S)-1-(cyclopropanecarbonyl)-4-((1-(difluoromethyl)-1H-pyrazol-4-yl)oxy)pyrrolidin-2-yl)-7-(2,3-dichlorophenyl)-6-fluoro-4-methyl-1H-pyrrolo[3,2-c]quinolin-8-yl)propanenitrile], for which the IC50 in series [1] and in series [3] was at most 100 nM in each case. Also, the Caco-2 entry in series [2] is “+++ (a Caco-2 value of >1)”.

As for `Cc1nc2c(F)c(-c3cccc(Cl)c3Cl)c(CCC#N)cc2c2c1cc([C@H]1C[C@H](n3cc(C4(C(F)F)CC4)nn3)CN1C(=O)C1CC1)n2[C@H]1[C@H]2CN[C@@H]1C2` [Example 67, 3-(1-((1R,4R,5S)-2-Azabicyclo[2.1.1]hexan-5-yl)-2-((2R,4S)-1-(cyclopropanecarbonyl)-4-(4-(1-(difluoromethyl)cyclopropyl)-1H-1,2,3-triazol-1-yl)pyrrolidin-2-yl)-7-(2,3-dichlorophenyl)-6-fluoro-4-methyl-1H-pyrrolo[3,2-c]quinolin-8-yl)propanenitrile], the IC50 in series [1] and in series [3] was at most 100 nM throughout. Moreover, the Caco-2 entry in series [2] was “+ (a Caco-2 value of ≤0.5)”.
